Measured values reported in patent publication US10273208B2, “Screening methods for the binding affinity of chemical entities to biological molecules and NEDD4-1 inhibitors identified by the screening methods” (Northwestern University, priority 2014, dated 2019).

How the values were obtained:
[1] = biological target: T1, NEDD4-1 HECT domain (Homo sapiens, UniProt P46934); experiment: Covalent labeling of NEDD4-1 HECT domain (gel filtration, whole protein ESI-MS); type: binding; conditions: compound 100 μM, NEDD4-1 HECT 10 μM, 4 h
T1 construct: to elute NEDD4-1 HECT domain (50 mM HEPES, 150 mM NaCl, 0.1 mM EDTA 1 mM DTT); GST (N, cleaved yes); made in house; host or cells: E. coli BL21
T1 sequence (P46934 with tags, fused parts or gaps): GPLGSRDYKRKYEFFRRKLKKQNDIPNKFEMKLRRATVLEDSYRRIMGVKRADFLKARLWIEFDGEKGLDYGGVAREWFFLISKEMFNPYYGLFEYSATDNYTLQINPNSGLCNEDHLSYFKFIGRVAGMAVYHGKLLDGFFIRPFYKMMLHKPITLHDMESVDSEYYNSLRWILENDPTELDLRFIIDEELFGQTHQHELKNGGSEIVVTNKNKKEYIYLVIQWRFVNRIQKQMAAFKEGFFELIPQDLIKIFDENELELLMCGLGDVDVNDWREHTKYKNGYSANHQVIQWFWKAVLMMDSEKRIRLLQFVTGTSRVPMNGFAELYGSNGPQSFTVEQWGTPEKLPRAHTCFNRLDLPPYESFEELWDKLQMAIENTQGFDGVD
Description: 10 μM of NEDD4-1 HECT domain in 50 mM HEPES 150 mM NaCl 0.1 mM EDTA 1 mM DTT pH 7.5 was treated with a mixture of ten fragments (from 10 mM each DMSO stock solution mixtures; final concentrations: 100 μM of each fragment, and 1% DMSO). Fragment structures and mixture compositions were the same as reported previously. The reaction mixture was incubated for 4 h at 23° C. before being passed through Zeba gel filtration columns (Thermo, 7K MWCO) to remove unreacted fragments. The protein solution was then immediately analyzed by whole protein LC/ESI-MS.
Accurate-mass data were obtained on an Agilent 6210A LC-TOF mass spectrometer in positive ion mode using electrospray ionization. Samples were chromatographed on the LC-TOF instrument using a Poroshell 120 EC-C18 HPLC column (2.1*50 mm, 2.7 micron), an Agilent Series 1200 HPLC binary pump, and an Agilent Series 1200 autoinjector. The HPLC column was held at 45° C. and the autosampler was held at 8° C. Mobile Phase A was a solution of 0.1% formic acid in water:acetonitrile (19:1). Mobile Phase B was a solution of 0.1% formic acid in acetonitrile. The flow rate was set to 250 μL/min. The gradient used was 0% B for 2 minutes, ramping linearly to 90% B from 2 minutes to 5 minutes, holding at 90% B from 5 minutes to 7 minutes, and then returning to 0% B at 7.1 minutes. The column was allowed to equilibrate for 2.7 minutes before the next injection was initiated. The eluent from the column was diverted to waste for the first 2 minutes. The spectra were acquired from 301 to 3200 daltons using a gas temperature of 340° C., a gas flow of 7 liters/min, and the nebulizer gas at 35 psi. The following voltages were used: capillary 4200 V, fragmentor 230V, skimmer 64V, and octapole RF peak 250V. Spectra were acquired at a rate of 1 spectra/sec. The data was processed using MassHunter software version B.02.00. Maximum entropy deconvolutions were performed with a Mass Step of 1, S/N Threshold of 30, Average Mass at 90% of Peak Height, and 5 Charge States Minimum.
10 μM of NEDD4-1 HECT domain in 50 mM HEPES 150 mM NaCl 0.1 mM EDTA 1 mM DTT pH 7.5 was treated with 1 mM of inhibitor 1 or 2 (from 100 mM DMSO stock solution; final concentrations: 1 mM of inhibitor, 1% DMSO, and 0.2% CHAPS to solubilize the inhibitors at 1 mM). The reaction mixture was incubated for 4 h at 23° C. before being passed through Zeba gel filtration columns (Thermo, 7K MWCO) to remove unreacted inhibitor. The protein solution was then immediately used for crystallization or enzymatic assay.

[2] = NMR rate studies: pseudo-first order reaction with N-acetylcysteine methyl ester; type: physicochemical; conditions: electrophile 10 mM, N-acetyl cysteine methyl ester 78 mM, 2:1 deuterated PBS:DMSO-d6, pD 8, NMR
Source text: We further validated the utility of electrophile 3 as a thiol-reactive tether by making a library of one hundred structurally diverse drug-like fragments 6-105 containing this electrophile. The library was constructed with an HBTU amide coupling with commercially available carboxylic acid fragments (FIG. 2A). The acids were selected with “rule of three” criteria^15 and a subsequent diversity analysis. We measured the reaction rates for the first fifty fragments to confirm that this library would have balanced cysteine reactivity and could be used for irreversible tethering (FIG. 2B).
N-Acetyl cysteine methyl ester was dissolved in 2:1 deuterated PBS:DMSO-d6 (78 mM) with 10 mM CH2Cl2 as an internal standard. The electrophile (10 mM) was then added immediately prior to acquiring spectra. H1 spectra were taken every 30 s for 30 min (or every 4 s for 5 min for highly reactive compounds 1c and 2a-c). The integrals of the vinyl peaks were used to determine the concentration of the electrophile over time. The natural logarithm of the concentration of the electrophile versus time was then plotted using GraphPad Prism software. The linear slope of this plot was used to determine the pseudofirst order rate constant. Deuterated PBS recipe: 20 mM Na3PO4, 50 mM NaCl in D2O was adjusted to pD 8 with DC1 solution.

[3] = biological target: T2, papain (Carica papaya, UniProt P00784); experiment: Papain activity assay (Cbz-Gly-ONp, kinact/KI); type: biochemical
T2 construct: purchased Sigma P4762
T2 sequence (P00784 134-345): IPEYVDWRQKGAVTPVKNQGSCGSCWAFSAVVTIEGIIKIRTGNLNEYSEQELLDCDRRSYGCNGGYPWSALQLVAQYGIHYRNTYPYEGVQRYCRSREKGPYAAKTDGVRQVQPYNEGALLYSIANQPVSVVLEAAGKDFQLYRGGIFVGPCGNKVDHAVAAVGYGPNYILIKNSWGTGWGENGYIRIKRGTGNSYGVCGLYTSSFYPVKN
Description: We subsequently tested compounds 6-8 in an enzymatic assay to confirm that they inhibited papain in the concentration and time dependent manner that is characteristic of irreversible inhibitors.^18 Using assay conditions previously described for papain,^17 we determined kinact/K1 values for compounds 6-8 (FIGS. 4 and 10).
Papain (4.8 μM) in 50 mM Na3PO4 2 mM EDTA was preactivated with 1 mM DTT for 30 min. Activated papain (3.84 μM) in 4:1 mixture of 50 mM Na3PO4, 2 mM EDTA at pH 6.2 and acetronitrile was then preincubated for 1 h with varying concentrations of the electrophilic fragment. Every 10 min, 10 μL of the reaction mixture was added to a well of 96-well plate containing 100 μL of 4:1 50 mM Na3PO4 2 mM EDTA pH 6.2:acetronitrile with 400 μM Cbz-Gly-ONp. p-Nitrophenol product formation was monitored by absorbance at 340 nm (£: 6800 M-1 cm-1) with a Biotek Synergy 4 plate reader. All reactions were performed in duplicate. Product concentration versus time was plotted with GraphPad Prism software and the initial slope was calculated to determine enzymatic activity (E). The values of kinact/KI for each inhibitor were then determined according to the method of Kitz and Wilson.23 Briefly, the slopes of the plots of ln(100*Einhibited/Euninhibited) vs. time were used to determine the pseudo-first order inhibition constant kobs for a given concentration of a given inhibitor. […]

[4] = biological target: T2, papain; experiment: Irreversible tethering screening assay (whole protein ESI-MS) against papain; type: binding
Description: Papain (10 μM) was incubated for one hour with ten reaction mixtures that each contained ten electrophilic fragments (100 μM each) (Table S2).
Hits were defined as any compounds which labeled papain more than 50%. […] Such selectivity is impressive, given a 9-fold excess of other cysteine reactive electrophiles over compounds 6, 7, and 8. […] This is despite the fact that these reaction mixtures contain a 100-fold excess of cysteine reactive electrophiles relative to the highly reactive catalytic cysteine of papain. […]
10 μM of papain (Sigma P4762), UbcH7 (recombinantly expressed) or USPO8 (recombinantly expressed) in 50 mM HEPES 150 mM NaCl 0.1 mM EDTA pH 7.5 was treated with a mixture of ten fragments (Table S2) (10 mM DMSO stock solutions, final concentrations: 100 μM of each fragment, and 1% DMSO). […] The protein solution was then immediately analyzed by whole protein LC/ESI-MS. […]
200 μL of papain and compound 6-8 adducts were prepared separately as described above in “irreversible tethering screening assay” by incubating papain (10 μM) with 100 μM of compounds 6-8 in 1% DMSO 50 mM HEPES 150 mM NaCl 0.1 mM EDTA pH 7.5. […] The cassettes were dialyzed against 500 mL of 50 mM HEPES 150 Mm NaCl 0.1 mM EDTA pH 7.5 for 16 h, then 20 μL were extracted and analyzed by ESI-MS. […]

[5] = biological target: T3, human rhinovirus 3C protease (GST-HRV3C, PreScission protease) (Human rhinovirus 14, UniProt P03303); experiment: Irreversible tethering counter-screen (ESI-MS) against HRV3C protease; type: binding; conditions: mixtures of ten fragments 100 μM each, 1 h
T3 construct: made in house; host or cells: E. coli Rosetta (DE3)pLysS
Description: FIG. 28A, FIG. 28B, FIG. 28C and FIG. 28D. Counterscreen of compound 6 against the deubiquitinase USPO8 and Human Rhinovirus (HRV) 3C protease, both of which have catalytic cysteines. Compound 6 at 100 μM in 1% DMSO was incubated with the catalytic domain of the indicated cysteine protease (10 μM) for 1 h, followed by gel filtration and whole protein ESI-MS.
To further test the specificity of the developed irreversible tethering system, we conducted a counter-screen of the same set of 100 compounds (10 mixtures of 10 compounds each) against three other enzymes: human rhinovirus 3C protease, the deubiquitinase USP08, and the E2 ubiquitin-conjugating enzyme UbcH7. […] The molecular weight of GST-HRV3C protease is 47566.72 Da and its amino acid sequence is provided as (SEQ ID NO:2).
10 μM of papain (Sigma P4762), UbcH7 (recombinantly expressed) or USPO8 (recombinantly expressed) in 50 mM HEPES 150 mM NaCl 0.1 mM EDTA pH 7.5 was treated with a mixture of ten fragments (Table S2) (10 mM DMSO stock solutions, final concentrations: 100 μM of each fragment, and 1% DMSO). The reaction mixture was incubated for 1 h or 4 h at 23° C. before being passed through Zeba gel filtration columns (Thermo, 7K MWCO) to remove unreacted fragments. The protein solution was then immediately analyzed by whole protein LC/ESI-MS.
Accurate-mass data were obtained on an Agilent 6210A LC-TOF mass spectrometer in positive ion mode using electrospray ionization. Samples were chromatographed on the LC-TOF instrument using a Poroshell 120 EC-C18 HPLC column (2.1*50 mm, 2.7 micron), an Agilent Series 1200 HPLC binary pump, and an Agilent Series 1200 autoinjector. The HPLC column was held at 45° C. and the autosampler was held at 8° C. Mobile Phase A was a solution of 0.1% formic acid in water:acetonitrile (19:1). Mobile Phase B was a solution of 0.1% formic acid in acetonitrile. The flow rate was set to 250 μL/min. The gradient used was 0% B for 2 minutes, ramping linearly to 90% B from 2 minutes to 5 minutes, holding at 90% B from 5 minutes to 7 minutes, and then returning to 0% B at 7.1 minutes. […]

T3 sequence (P03303 1538-1719, added parts left off): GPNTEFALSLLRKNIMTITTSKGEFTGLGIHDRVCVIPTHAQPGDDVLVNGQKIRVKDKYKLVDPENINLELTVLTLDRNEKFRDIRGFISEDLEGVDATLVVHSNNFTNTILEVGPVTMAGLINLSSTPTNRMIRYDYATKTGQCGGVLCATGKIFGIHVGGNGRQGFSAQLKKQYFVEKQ

Structure (SMILES)	k pseudo-first order [2]	further results
CCOc1ccc2c(c1)c(C(=O)NC/C=C/C(=O)OC)c(C)n2C [Compound 10, Methyl(E)-4-(5-ethoxy-1,2-dimethyl-1H-indole-3-carboxamido)but-2-enoate]		labeling of NEDD4-1 HECT domain (qualitative) [1]: did not label NEDD4-1
COC(=O)/C=C/CNC(=O)c1ccc(C2CCCO2)s1 (centres unmarked) [Compound 19]	0.0004396 s⁻¹	fold less potent at inhibiting papain than the least potent inhibitor 6 [3]: ~10 fold; fold less potent at inhibiting papain than the most potent inhibitor 7 [3]: ~33 fold; covalent labeling of papain ([4]; papain 10 μM, mixtures of ten fragments 100 μM each, 1 h, hit = labeled papain more than 50%): did not label papain
COC(=O)/C=C/CNC(=O)c1csc(-c2cccs2)n1 [Compound 22]	0.0007605 s⁻¹	labeling of HRV3C protease [5]: ~35%
COC(=O)/C=C/CNC(=O)c1ccc2ccccc2n1 [Compound 32]	0.0006296 s⁻¹	labeling of HRV3C protease [5]: ~20%
COC(=O)/C=C/CNC(=O)c1c[nH]nc1-c1cccc(F)c1 [Compound 47]	0.0006539 s⁻¹	
COC(=O)/C=C/CNC(=O)C(C)n1cnc2ccccc21 (centres unmarked) [Compound 48]	0.000468 s⁻¹	
COC(=O)/C=C/CNC(=O)c1cnn(Cc2ccccc2)c1 [Compound 49]	0.0004975 s⁻¹	
COC(=O)/C=C/CNC(=O)c1n[nH]cc1Br [Compound 50]	0.0006514 s⁻¹	
COC(=O)/C=C/CNC(=O)c1ccccc1N(C)C(=O)c1ccco1 [Compound 51]	0.0005048 s⁻¹	
COC(=O)/C=C/CNC(=O)c1cc(C2CC2)nc2ccccc12 [Compound 52]	0.0005984 s⁻¹	
COC(=O)/C=C/CNC(=O)c1ccc(Cl)cn1 [Compound 53]	0.0005521 s⁻¹	
COC(=O)/C=C/CNC(=O)CNC(=O)c1ccccc1Br [Compound 54]	0.0005048 s⁻¹	
COC(=O)/C=C/CNC(=O)Cn1c(=O)cc(C)c2ccccc21 [Compound 55]	0.000452 s⁻¹	
COC(=O)/C=C/CNC(=O)c1cc2cc(Cl)cc(OC)c2o1 [Compound 98]		labeling of HRV3C protease [5]: ~20%
COC(=O)/C=C/CNC(=O)[C@H](Cc1ccccc1)NC(C)=O [Compound 106, reference compound]		effect of pretreatment of papain on subsequent labeling by compounds 6-8 ([4]; 100 μM 106 for 1 h, then 100 μM of 6, 7 or 8): blocked subsequent labeling by compounds 6-8
